Experimental data as given in patent US20100093993A1 (priority 2007, published 2010).

Columns and labels:
[1] = system: intraperitoneal macrophage cells of a mouse; experiment: Measurement of macrophage activity: nitrite ion concentration (NO release, Griess reagent); format: cell-based; settings: test compound 50 μM; for Nitrite Ion Concentration Relative Value: relative to TDCM = 1.0, 48 hours; for Nitrite Ion Concentration Actual Value: cultured 48 hours, mouse peritoneal macrophages, mean ± S.E.
Procedure: Macrophage activation indicates the condition wherein the adhesion to the tissue and the motility of the macrophages are improved, so that bacteria entering from outside or denatured self-components are phagocytized. Macrophage activity can be measured using the release of cytokine or active oxygen as an index. In Experimental Example 1 below, the macrophage activation ability was measured using the nitrite ion concentration as an index.
The present experiment was conducted with reference to the method described in Sakurai T., Kaise T., Matsubara C. Chem. Res. Toxicol. 1998, 11, 273-283. Specifically, ICR male mice (6 to 7 weeks old) were anesthetized, a phosphate buffer containing 0.05% EDTA was injected intraperitoneally, an intraperitoneal lavage was performed, and a peritoneal macrophage was aseptically recovered. After the cells were washed with an RPMI-1640 medium (containing 10% bovine fetal serum), the macrophage cells were inoculated so that there were 1×10^5 cells/100 μl in each well of the 96-well plate. After being pre-incubated for 2 hours, the test compound (50 μM) was added to the culture medium, and cultured for 48 hours. Afterwards, a Griess test reagent was added to the culture medium, which was allowed to stand for 10 minutes; the absorbency thereof was measured with a microplate reader (filter: 550/630 nm), after which the nitrite ion concentration (NO2^−) was determined from a calibration curve. The reproducibility of the above-described test was confirmed by 3 wells, the experiment was repeated at least three times using different mice, and the mean values ±S.E. were determined.

rabbit neutrophil [2] = experiment: Influence on the phagocytic action of neutrophils (opsonized ampicillin resistant E. coli, colony count); settings: neutrophils treated 1 hour, then opsonized E. coli 1 hour
rabbit neutrophil [3] = experiment: Influence on rabbit neutrophil H2O2 production (H2DCFDA fluorescence); format: cell-based; settings: 2 hours at 37° C., rabbit neutrophils
Procedure: The neutrophils (1.0×10^5 cells/100 μl) were inoculated in a 96-well plate (Falcon).

[4] = system: Clostridium perfringens (Type A NTCT8237); format: in vivo, ICR mice; settings: emulsion solution 100 mg/mouse, 3 hours before C. perfringens 2.4×10^7 cells/mouse

Row | SMILES | Nitrite Ion Concentration Relative Value [1] | Nitrite Ion Concentration Actual Value [1] | The number of colonies (rabbit neutrophil [2]; 50 μM) | The number of colonies (rabbit neutrophil [2]; 100 μM) | H2O2 production (rabbit neutrophil [3]; 50 μM) | H2O2 production (rabbit neutrophil [3]; 100 μM) | The number surviving/Administered group After 2 hr [4] | The number surviving/Administered group After 6 hr [4] | The number surviving/Administered group After 12 hr [4] | The number surviving/Administered group After 24 hr [4] | The number surviving/Administered group after 48 hr [4]
1 | CCCCCCCCCCCCC(CCCCCCCCCCCC)C(=O)NCC1O[C@H](O[C@H]2OC(CNC(=O)C(CCCCCCCCCCCC)CCCCCCCCCCCC)[C@@H](O)C(O)C2O)C(O)C(O)[C@@H]1O (stereo partly drawn) [Ex. 3, 6,6′-bis-N-(2-dodecyltetradecanoylamino)-6,6′-dideoxy-α,α′-trehalose] | 2.4 | 1202 ± 647 nM | 58 ± 9 | 112 ± 15 | 0.18 ± 0.03 nmol/10^5 Cells | 0.20 ± 0.03 nmol/10^5 Cells |  |  |  |  | 
2 | CCCCCCCCCCCCCCCC(CCCCCCCCCCCCCCC)C(=O)NCC1O[C@H](O[C@H]2OC(CNC(=O)C(CCCCCCCCCCCCCCC)CCCCCCCCCCCCCCC)[C@@H](O)C(O)C2O)C(O)C(O)[C@@H]1O (stereo partly drawn) [Ex. 6, 6,6′-bis-N-(2-pentadecylheptadecanoylamino)-6,6′-dideoxy-α,α′-trehalose] | 1.7 | 851 ± 608 nM | 120 ± 11 | 220 ± 12 | 0.11 ± 0.03 nmol/10^5 Cells | 0.16 ± 0.03 nmol/10^5 Cells |  |  |  |  | 
3 | CCCCCCCCCCCCCC(CCCCCCCCCCCCC)C(=O)NCC1O[C@H](O[C@H]2OC(CNC(=O)C(CCCCCCCCCCCCC)CCCCCCCCCCCCC)[C@@H](O)C(O)C2O)C(O)C(O)[C@@H]1O (stereo partly drawn) [Ex. 4, 6,6′-bis-N-(2-tridecylpentadecanoylamino)-6,6′-dideoxy-α,α′-trehalose] | 7.6 | 3676 ± 385 nM | 200 ± 15 | 350 ± 30 | 0.15 ± 0.02 nmol/10^5 Cells | 0.18 ± 0.02 nmol/10^5 Cells | 4/4 | 4/4 | 4/4 | 4/4 | 4/4
4 | CCCCCCCCCCCC(CCCCCCCCCCC)C(=O)NCC1O[C@H](O[C@H]2OC(CNC(=O)C(CCCCCCCCCCC)CCCCCCCCCCC)[C@@H](O)C(O)C2O)C(O)C(O)[C@@H]1O (stereo partly drawn) [Ex. 2, 6,6′-bis-N-(2-undecyltridecanoylamino)-6,6′-dideoxy-α,α′-trehalose] | 3.9 | 1973 ± 973 nM | 89 ± 21 | 172 ± 13 | 0.25 ± 0.02 nmol/10^5 Cells | 0.26 ± 0.02 nmol/10^5 Cells |  |  |  |  | 
5 | CCCCCCCCCCCCCCCCC(CCCCCCCCCCCCCCCC)C(=O)NCC1O[C@H](O[C@H]2OC(CNC(=O)C(CCCCCCCCCCCCCCCC)CCCCCCCCCCCCCCCC)[C@@H](O)C(O)C2O)C(O)C(O)[C@@H]1O (stereo partly drawn) [Ex. 7, 6,6′-bis-N-(2-hexadecyloctadecanoylamino)-6,6′-dideoxy-α,α′-trehalose] | 0.6 | 300 ± 229 nM | 110 ± 7 | 200 ± 8 | 0.10 ± 0.03 nmol/10^5 Cells | 0.15 ± 0.02 nmol/10^5 Cells |  |  |  |  | 
6 | CCCCCCCCCCCCCCC[C@@H](O)[C@@H](CCCCCCCCCCCCCC)C(=O)OCC1O[C@H](O[C@H]2OC(COC(=O)[C@H](CCCCCCCCCCCCCC)[C@H](O)CCCCCCCCCCCCCCC)[C@@H](O)[C@H](O)C2O)C(O)[C@@H](O)[C@@H]1O (some centres unmarked) [TDCM, trehalose 6,6′-dicorynomycolate, reference compound] | 1.0 | 500 ± 271 nM | 50 ± 10 | 87 ± 10 | 0.18 ± 0.02 nmol/10^5 Cells | 0.21 ± 0.02 nmol/10^5 Cells | 4/4 | 4/4 | 4/4 | 4/4 | 4/4
7 | CCCCCCCCCCC(CCCCCCCCCC)C(=O)NCC1O[C@H](O[C@H]2OC(CNC(=O)C(CCCCCCCCCC)CCCCCCCCCC)[C@@H](O)C(O)C2O)C(O)C(O)[C@@H]1O (stereo partly drawn) [Ex. 1, 6,6′-bis-N-(2-decyldodecanoylamino)-6,6′-dideoxy-α,α′-trehalose] | 0.4 | 200 ± 133 nM | 250 ± 11 | 487 ± 20 | 0.33 ± 0.05 nmol/10^5 Cells | 0.38 ± 0.05 nmol/10^5 Cells | 4/4 | 4/4 | 4/4 | 4/4 | 4/4
8 | CCCCCCCCCCCCCCC(CCCCCCCCCCCCCC)C(=O)NCC1O[C@H](O[C@H]2OC(CNC(=O)C(CCCCCCCCCCCCCC)CCCCCCCCCCCCCC)[C@@H](O)C(O)C2O)C(O)C(O)[C@@H]1O (stereo partly drawn) [Ex. 5, 6,6′-bis-N-(2-tetradecylhexadecanoylamino)-6,6′-dideoxy-α,α′-trehalose] | 8.8 | 4419 ± 4250 nM | 250 ± 16 | 450 ± 31 | 0.26 ± 0.04 nmol/10^5 Cells | 0.29 ± 0.04 nmol/10^5 Cells | 4/4 | 4/4 | 4/4 | 4/4 | 4/4
